Source: patent US10131652B2, “Pyrimidinyloxy benzene derivatives as herbicides” (E. I. DU PONT DE NEMOURS AND COMPANY, priority 2014, dated 2018)

Tests used:
Experiment in all cases: Test D pre-/postemergence plant response
Type in all cases: in vivo
Conditions in all cases: Postemergence
[1] = test system: morningglory (Ipomoea coccinea)
Procedure, shortened: (§1)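 Test chemicals were formulated in a non-phytotoxic solvent mixture containing surfactant and applied either preemergence to seeds in loam–sand soil or postemergence to plants 2 to 18 cm tall (1- to 4-leaf stage). Response was rated visually against controls after 13 to 15 days, from 0 (none) to 100 (complete control).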

[2] = test system: yellow nutsedge (Cyperus esculentus)
Procedure, shortened: as §1

[3] = test system: blackgrass (Alopecurus myosuroides)
Procedure, shortened: as §1

[4] = test system: galium (catchweed bedstraw, Galium aparine)
Procedure, shortened: as §1

[5] = test system: Italian ryegrass (Lolium multiflorum)
Procedure, shortened: as §1

[6] = test system: winter wheat (Triticum aestivum)
Procedure, shortened: as §1

[7] = test system: barnyardgrass (Echinochloa crus-galli)
Procedure, shortened: as §1

[8] = test system: ragweed (common ragweed, Ambrosia elatior)
Procedure, shortened: as §1

[9] = test system: pigweed (Amaranthus retroflexus)
Procedure, shortened: as §1

[10] = test system: giant foxtail (Setaria faberii)
Procedure, shortened: as §1

corn (Zea mays) = test system: corn (Zea mays)
Procedure, shortened: as §1

[11] = test system: large (Lg) crabgrass (Digitaria sanguinalis)
Procedure, shortened: as §1

[12] = test system: johnsongrass (Sorghum halepense)
Procedure, shortened: as §1

[13] = test system: lambsquarters (Chenopodium album)
Procedure, shortened: as §1

[14] = test system: waterhemp (common waterhemp, Amaranthus rudis)
Procedure, shortened: as §1

soybean (Glycine max) = test system: soybean (Glycine max)
Procedure, shortened: as §1

[15] = test system: velvetleaf (Abutilon theophrasti)
Procedure, shortened: as §1

[16] = test system: oilseed rape (Brassica napus)
Procedure, shortened: as §1

[17] = 31 g ai/ha, scale 0 to 100 (0 no effect, 100 complete control)
[18] = 62 g ai/ha, scale 0 to 100, 0 no effect, 100 complete control
[19] = 125 g ai/ha, scale 0 to 100, 0 no effect, 100 complete control

Cc1cc(-c2c(F)cccc2Oc2ncc(Br)cn2)on1 [Compound 230]
30: Plant response rating (scale 0 to 100), Ragweed ([8]; 16 g ai/ha)
0: Plant response rating (scale 0 to 100), Nutsedge, Yellow ([2]; 16 g ai/ha) | Nutsedge, Yellow plant response rating [2, 17] | Plant response rating (scale 0 to 100), Blackgrass ([3]; 16 g ai/ha) | Plant response rating (scale 0 to 100), Ryegrass, Italian ([5]; 16 g ai/ha) | Ryegrass, Italian plant response rating [5, 17] | Plant response rating (scale 0 to 100), Corn (corn (Zea mays); 16 g ai/ha) | Corn plant response rating (corn (Zea mays); [17]) | Corn plant response rating (corn (Zea mays); [18]) | Plant response rating (scale 0 to 100), Crabgrass, Large ([11]; 16 g ai/ha) | Plant response rating (scale 0 to 100), Johnsongrass ([12]; 16 g ai/ha) | Johnsongrass plant response rating [12, 17]
5: Plant response rating (scale 0 to 100), Morningglory ([1]; 16 g ai/ha) | Morningglory plant response rating [1, 17] | Morningglory plant response rating [1, 18] | Nutsedge, Yellow plant response rating [2, 18] | Plant response rating, Nutsedge, Yellow [2, 19] | Ryegrass, Italian plant response rating [5, 18] | Plant response rating, Ryegrass, Italian [5, 19] | Plant response rating (scale 0 to 100), Wheat ([6]; 16 g ai/ha) | Wheat plant response rating [6, 17] | Wheat plant response rating [6, 18] | Plant response rating (scale 0 to 100), Barnyardgrass ([7]; 16 g ai/ha) | Barnyardgrass plant response rating [7, 17] | Plant response rating, Barnyardgrass [7, 19] | Plant response rating (scale 0 to 100), Foxtail, Giant ([10]; 16 g ai/ha) | Foxtail, Giant plant response rating [10, 17] | Crabgrass, Large plant response rating [11, 17] | Crabgrass, Large plant response rating [11, 18] | Johnsongrass plant response rating [12, 18] | Plant response rating, Johnsongrass [12, 19]
40: Ragweed plant response rating [8, 17] | Velvetleaf plant response rating [15, 17]
60: Plant response rating (scale 0 to 100), Pigweed ([9]; 16 g ai/ha) | Oilseed Rape plant response rating [16, 17]
25: Plant response rating (scale 0 to 100), Velvetleaf ([15]; 16 g ai/ha)
80: Plant response rating (scale 0 to 100), Galium ([4]; 16 g ai/ha) | Lambsquarters plant response rating [13, 18] | Plant response rating, Waterhemp [14, 19]
65: Pigweed plant response rating [9, 17] | Plant response rating (scale 0 to 100), Waterhemp ([14]; 16 g ai/ha) | Soybean plant response rating (soybean (Glycine max); [18]) | Plant response rating, Velvetleaf [15, 19]
75: Waterhemp plant response rating [14, 18] | Oilseed Rape plant response rating [16, 18] | Plant response rating, Oilseed Rape [16, 19]
50: Plant response rating (scale 0 to 100), Soybean (soybean (Glycine max); 16 g ai/ha) | Plant response rating (scale 0 to 100), Oilseed Rape ([16]; 16 g ai/ha)
95: Plant response rating, Galium [4, 19]
85: Galium plant response rating [4, 17] | Galium plant response rating [4, 18] | Plant response rating, Pigweed [9, 19] | Plant response rating, Soybean (soybean (Glycine max); [19])
55: Ragweed plant response rating [8, 18] | Plant response rating, Ragweed [8, 19] | Plant response rating (scale 0 to 100), Lambsquarters ([13]; 16 g ai/ha) | Soybean plant response rating (soybean (Glycine max); [17]) | Velvetleaf plant response rating [15, 18]
70: Plant response rating, Morningglory [1, 19] | Pigweed plant response rating [9, 18] | Lambsquarters plant response rating [13, 17] | Plant response rating, Lambsquarters [13, 19] | Waterhemp plant response rating [14, 17]
10: Blackgrass plant response rating [3, 17] | Blackgrass plant response rating [3, 18] | Plant response rating, Blackgrass [3, 19] | Barnyardgrass plant response rating [7, 18] | Foxtail, Giant plant response rating [10, 18] | Plant response rating, Foxtail, Giant [10, 19] | Plant response rating, Crabgrass, Large [11, 19]
15: Plant response rating, Wheat [6, 19] | Plant response rating, Corn (corn (Zea mays); [19])
